Experimental data published in US12662476B2, “Herbicidal thiazole compounds” (SYNGENTA CROP PROTECTION AG, priority 2019, dated 2026).

How the values were obtained:
Type in all cases: in vivo
[1] = tested on: Amaranthus retoflexus (AMARE); test: Post-emergence herbicidal glasshouse test; conditions: sprayed after 8 days cultivation, 250 g/ha, evaluated after 13 days, five-point scale
Protocol: (§1) Seeds of a variety of test species are sown in standard soil in pots Amaranthus retoflexus (AMARE), Echinochloa crus-galli (ECHCG), Setaria faberi (SETFA)). After cultivation for one day (pre-emergence) or after 8 days cultivation (post-emergence) under controlled conditions in a glasshouse (at 24/16° C., day/night; 14 hours light; 65% humidity), the plants are sprayed with an aqueous spray solution derived from the formulation of the technical active ingredient in acetone/water (50:50) solution containing 0.5% Tween™ 20 (polyoxyethylene sorbitan monolaurate, CAS RN 9005-64-5). Compounds are applied at 250 g/ha unless otherwise stated. The test plants are then grown in a glasshouse under controlled conditions in a glasshouse (at 24/16° C., day/night; 14 hours light; 65% humidity) and watered twice daily. After 13 days for pre- and post-emergence, the test is evaluated for the percentage damage caused to the plant. The biological activities are shown in the following table on a five-point scale (5=81-100%; 4=61-80%; 3=41-60%; 2=21-40%; 1=0-20%).

Setaria faberi (SETFA) [2] = test: Post-emergence herbicidal glasshouse test; conditions: sprayed after 8 days cultivation, 250 g/ha, evaluated after 13 days, five-point scale
Protocol: as §1

[3] = tested on: Echinochloa crus-galli (ECHCG); test: Post-emergence herbicidal glasshouse test; conditions: sprayed after 8 days cultivation, 250 g/ha, evaluated after 13 days, five-point scale
Protocol: as §1

[4] = tested on: Amaranthus retoflexus (AMARE); test: Pre-emergence herbicidal glasshouse test; conditions: sprayed after one day cultivation, 250 g/ha, evaluated after 13 days, five-point scale
Protocol: as §1

Setaria faberi (SETFA) [5] = test: Pre-emergence herbicidal glasshouse test; conditions: sprayed after one day cultivation, 250 g/ha, evaluated after 13 days, five-point scale
Protocol: as §1

[6] = tested on: Echinochloa crus-galli (ECHCG); test: Pre-emergence herbicidal glasshouse test; conditions: sprayed after one day cultivation, 250 g/ha, evaluated after 13 days, five-point scale
Protocol: as §1

| Compound | percentage damage caused to the plant, AMARE [1] | percentage damage caused to the plant, SETFA (Setaria faberi (SETFA) [2]) | percentage damage caused to the plant, ECHCG [3] | percentage damage caused to the plant, AMARE [4] | percentage damage caused to the plant, SETFA (Setaria faberi (SETFA) [5]) | percentage damage caused to the plant, ECHCG [6] |
| --- | --- | --- | --- | --- | --- | --- |
| C=Cc1cnc(Oc2cccc(F)c2-c2cc(C(F)F)no2)s1 [Compound 1.002, 3-(difluoromethyl)-5-[2-fluoro-6-(5-vinylthiazol-2-yl)oxy-phenyl]isoxazole] | 2 (2=21-40%) | 4 (4=61-80%) | 4 (4=61-80%) | 1 (1=0-20%) | 2 (2=21-40%) | 4 (4=61-80%) |
| Fc1cccc(Oc2ncc(Br)s2)c1-c1cc(C(F)F)no1 [Compound 1.004, 5-[2-(5-bromothiazol-2-yl)oxy-6-fluoro-phenyl]-3-(difluoromethyl)isoxazole] | 5 (5=81-100%) | 5 (5=81-100%) | 5 (5=81-100%) | 5 (5=81-100%) | 5 (5=81-100%) | 4 (4=61-80%) |
| FC(F)c1cc(-c2c(Br)cccc2Oc2ncc(C(F)F)s2)on1 [Compound 1.020] | 4 (4=61-80%) | 5 (5=81-100%) | 4 (4=61-80%) | 1 (1=0-20%) | 5 (5=81-100%) | 5 (5=81-100%) |
| Fc1cccc(Oc2nc(Cl)cs2)c1-c1cc(C(F)F)no1 [Compound 1.008] | 4 (4=61-80%) | 1 (1=0-20%) | 2 (2=21-40%) | 3 (3=41-60%) | 3 (3=41-60%) | 1 (1=0-20%) |
| FC(F)c1cc(-c2c(Br)cccc2Oc2ncc(Cl)s2)on1 [Compound 1.023] | 5 (5=81-100%) | 5 (5=81-100%) | 5 (5=81-100%) | 5 (5=81-100%) | 5 (5=81-100%) | 5 (5=81-100%) |
| Fc1cccc(Oc2nc(C(F)F)c(Cl)s2)c1-c1cc(C(F)F)no1 [Compound 1.035] | 2 (2=21-40%) | 1 (1=0-20%) | 1 (1=0-20%) | 1 (1=0-20%) | 1 (1=0-20%) | 1 (1=0-20%) |
| FC(F)c1cc(-c2c(Br)cccc2Oc2ncc(Br)s2)on1 [Compound 1.024] | 5 (5=81-100%) | 5 (5=81-100%) | 5 (5=81-100%) | 4 (4=61-80%) | 4 (4=61-80%) | 5 (5=81-100%) |
| N#Cc1cccc(Oc2ncc(C(F)F)s2)c1-c1cc(C(F)F)no1 [Compound 1.014] | 3 (3=41-60%) | 4 (4=61-80%) | 3 (3=41-60%) | 3 (3=41-60%) | 5 (5=81-100%) | 5 (5=81-100%) |
